Inconclusive results are not listed.
Test system: MX-1 breast xenograft, nude mice, tumor weight T/C
Test: NCI In Vivo Anticancer Drug Screen. Data for tumor model Human Mammary Carcinoma MX-1 Xenograft (intrarenal inoculation) in NU/NU Swiss (nude) mice
Conditions: endpoint: mean tumor weight change, higher = larger tumour
Procedure, shortened: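 Read-out: treated (T) over vehicle control (C) ratio of survival or tumor size. Dosing in animals carrying the transplanted tumor.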

[1] = dose: 50.0 mg/kg/injection, schedule: Q01DX010 (sc), vehicle: saline with Tween-80
[2] = dose: 100.0 mg/kg/injection, schedule: Q01DX010 (sc), vehicle: saline with Tween-80
[3] = dose: 150.0 mg/kg/injection, schedule: Q04DX003 (sc), vehicle: suspension in saline
[4] = dose: 300.0 mg/kg/injection, schedule: Q04DX003 (sc), vehicle: Klucel (hydroxypropylcellulose) (HPC)
[5] = dose: 600.0 mg/kg/injection, schedule: Q04DX003 (sc), vehicle: Klucel (hydroxypropylcellulose) (HPC)
[6] = dose: 1200.0 mg/kg/injection, schedule: Q04DX003 (sc), vehicle: Klucel (hydroxypropylcellulose) (HPC)
[7] = dose: 2400.0 mg/kg/injection, schedule: Q04DX003 (sc), vehicle: Klucel (hydroxypropylcellulose) (HPC)
[8] = dose: 300.0 mg/kg/injection, schedule: Q04DX003 (sc), vehicle: saline
[9] = dose: 600.0 mg/kg/injection, schedule: Q04DX003 (sc), vehicle: saline
[10] = dose: 1200.0 mg/kg/injection, schedule: Q04DX003 (sc), vehicle: saline
[11] = dose: 2400.0 mg/kg/injection, schedule: Q04DX003 (sc), vehicle: saline
[12] = dose: 37.5 mg/kg/injection, schedule: Q04DX003 (sc), vehicle: saline
[13] = dose: 150.0 mg/kg/injection, schedule: Q04DX003 (sc), vehicle: saline
[14] = dose: 600.0 mg/kg/injection, schedule: Q04DX003 (sc), vehicle: saline with Tween-80
[15] = dose: 1200.0 mg/kg/injection, schedule: Q04DX003 (sc), vehicle: saline with Tween-80

For COc1ccc2nc3cc(Cl)ccc3c(NCCNCCNCCNc3c4ccc(Cl)cc4nc4ccc(OC)cc34)c2c1, the T/C (dose: 25.0 mg/kg/injection, schedule: Q01DX010 (sc), vehicle: saline with Tween-80) was 74 % of control, the T/C [1] was 78 % of control and the T/C [2] was 115 % of control. For the same molecule, the T/C (dose: 200.0 mg/kg/injection, schedule: Q01DX010 (sc), vehicle: saline with Tween-80) was 80 % of control.
For Cc1cc(NS(=O)(=O)c2ccc(N=Nc3cc(N=Nc4ccc(S(=O)(=O)Nc5cc(C)nc(C)n5)cc4)c4c(NC(=O)C(Cl)Cl)cccc4c3OC(=O)C(Cl)Cl)cc2)nc(C)n1 (tested in a mixture with another compound), the T/C (dose: 2400.0 mg/kg/injection, schedule: Q04DX003 (sc), vehicle: suspension in saline) was 112 % of control.
In the case of ClC1=C(Cl)C(Cl)=C(Cl)C1=Cc1ccccc1, the T/C (dose: 100.0 mg/kg/injection, schedule: Q04DX003 (sc), vehicle: saline with Tween-80) is reported as 98 % of control, the T/C (dose: 200.0 mg/kg/injection, schedule: Q04DX003 (sc), vehicle: saline with Tween-80) is reported as 119 % of control and the T/C (dose: 400.0 mg/kg/injection, schedule: Q04DX003 (sc), vehicle: saline with Tween-80) is reported as 98 % of control. For the same molecule, the T/C (dose: 800.0 mg/kg/injection, schedule: Q04DX003 (sc), vehicle: saline with Tween-80) was 110 % of control.
With CN1C(=O)CC2(CCN(CCCC(=O)c3ccc(F)cc3)CC2)C1=O the T/C (dose: 37.5 mg/kg/injection, schedule: Q04DX003 (sc), vehicle: suspension in saline) was 61 % of control and the T/C [3] was 85 % of control.
In the case of Oc1c(Cl)cc(Cl)cc1C1N2CCCCC2C2c3cccn3-c3ccccc3N21 (centres undefined), the T/C [4] is reported as 105 % of control, the T/C [5] is reported as 66 % of control and the T/C [6] is reported as 88 % of control. The T/C [7] was 82 % of control.
For O=c1[nH]c(=O)n(C2CC(O)C(CO)O2)cc1C(F)(F)F (centres undefined), the T/C [8] was 77 % of control, the T/C [9] was 72 % of control and the T/C [10] was 43 % of control. For the same molecule, the T/C [11] was 29 % of control.
With O=C(NP(=O)(N1CC1)N1CC1)c1cc(I)ccc1I the T/C [12] was 23 % of control, the T/C (dose: 75.0 mg/kg/injection, schedule: Q04DX003 (sc), vehicle: suspension in saline) was -60 % of control and the T/C [13] was -9 % of control. For the same molecule, the T/C [3] was 11 % of control, the T/C [8] was -100 % of control and the T/C (dose: 300.0 mg/kg/injection, schedule: Q04DX003 (sc), vehicle: suspension in saline) was -27 % of control. The T/C (dose: 600.0 mg/kg/injection, schedule: Q04DX003 (sc), vehicle: suspension in saline) was 2 % of control.
In the case of CC1(CO)C(O)CCC2(C)C1CCC1CC3CC12CCC3(O)CO (centres undefined), the T/C [1] is reported as 56 % of control and the T/C [2] is reported as 38 % of control.
CC(=Nc1ccccc1)C1=C(O)C(Cc2ccccc2)NC1=O (centres undefined) was tested, and the T/C (dose: 150.0 mg/kg/injection, schedule: Q04DX003 (sc), vehicle: saline with Tween-80) was 92 % of control, the T/C (dose: 300.0 mg/kg/injection, schedule: Q04DX003 (sc), vehicle: saline with Tween-80) was 63 % of control and the T/C [14] was 48 % of control. For the same molecule, the T/C [15] was 44 % of control.
Cn1cnc([N+](=O)[O-])c1SCC(=O)O was tested, and the T/C [8] was 80 % of control, the T/C [9] was 43 % of control and the T/C [10] was 88 % of control. For the same molecule, the T/C [11] was 71 % of control.
NC(=S)N/N=C\c1ncccc1OCc1cccc(N)c1 was tested, and the T/C [14] was 75 % of control and the T/C [15] was 152 % of control.
In the case of CC1CN1P1(N2CC2C)=NP(N2CC2C)(N2CC2C)=NP(N2CC2C)(N2CC2C)=N1 (centres undefined), the T/C (dose: 18.75 mg/kg/injection, schedule: Q01DX010 (sc), vehicle: saline) is reported as 70 % of control, the T/C (dose: 25.0 mg/kg/injection, schedule: Q01DX010 (sc), vehicle: saline) is reported as 50 % of control and the T/C (dose: 37.5 mg/kg/injection, schedule: Q01DX010 (sc), vehicle: saline) is reported as 41 % of control. The T/C (dose: 50.0 mg/kg/injection, schedule: Q01DX010 (sc), vehicle: saline) was 26 % of control, the T/C (dose: 75.0 mg/kg/injection, schedule: Q01DX010 (sc), vehicle: saline) was 4 % of control and the T/C (dose: 100.0 mg/kg/injection, schedule: Q01DX010 (sc), vehicle: saline) was -7 % of control. The T/C [13] was 13 % of control.
O=C1NC(O)CCN1C1OC(CO)C(O)C1O (centres undefined) was tested, and the T/C (dose: 200.0 mg/kg/injection, schedule: Q01DX010 (sc), vehicle: water) was 111 % of control, the T/C (dose: 400.0 mg/kg/injection, schedule: Q01DX010 (sc), vehicle: water) was 112 % of control and the T/C (dose: 800.0 mg/kg/injection, schedule: Q01DX010 (sc), vehicle: water) was 79 % of control. The T/C (dose: 1600.0 mg/kg/injection, schedule: Q01DX010 (sc), vehicle: water) was 103 % of control.
With O=C1CN(CN2CCOCC2)C(=O)CN1CN1CCOCC1 the T/C (dose: 25.0 mg/kg/injection, schedule: Q01DX010 (sc), vehicle: suspension in saline) was 117 % of control, the T/C (dose: 50.0 mg/kg/injection, schedule: Q01DX010 (sc), vehicle: suspension in saline) was 119 % of control and the T/C (dose: 100.0 mg/kg/injection, schedule: Q01DX010 (sc), vehicle: suspension in saline) was 161 % of control. The T/C (dose: 200.0 mg/kg/injection, schedule: Q01DX010 (sc), vehicle: suspension in saline) was 87 % of control.
In the case of N#CCCN(C(=S)Nc1cccc(C(F)(F)F)c1)C1CCCCC1, the T/C [4] is reported as 89 % of control and the T/C [7] is reported as 106 % of control.
c1ccc([C@H]2CN3CCSC3=N2)cc1 was tested, and the T/C (dose: 15.0 mg/kg/injection, schedule: Q04DX003 (sc), vehicle: saline) was 80 % of control, the T/C (dose: 30.0 mg/kg/injection, schedule: Q04DX003 (sc), vehicle: saline) was 71 % of control and the T/C (dose: 60.0 mg/kg/injection, schedule: Q04DX003 (sc), vehicle: saline) was 75 % of control.
COc1ccc(OC)c(Cc2cnc3nc(N)nc(N)c3c2C)c1 was tested, and the T/C (dose: 75.0 mg/kg/injection, schedule: Q04DX003 (sc), vehicle: water) was 73 % of control, the T/C (dose: 150.0 mg/kg/injection, schedule: Q04DX003 (sc), vehicle: water) was 56 % of control and the T/C (dose: 300.0 mg/kg/injection, schedule: Q04DX003 (sc), vehicle: water) was 53 % of control. The T/C (dose: 600.0 mg/kg/injection, schedule: Q04DX003 (sc), vehicle: water) was 62 % of control.
COc1cc(NCCCCCCCNC(C)C)c2nccc(C)c2c1 was tested, and the T/C [12] was 93 % of control, the T/C (dose: 75.0 mg/kg/injection, schedule: Q04DX003 (sc), vehicle: saline) was 76 % of control and the T/C [13] was 66 % of control.
In the case of O=C1C(=O)c2cccnc2-c2ncccc21, the T/C (dose: 20.0 mg/kg/injection, schedule: Q04DX003 (sc), vehicle: Klucel (hydroxypropylcellulose) (HPC)) is reported as 60 % of control.
In the case of Cc1ccc(C(=O)[O][Hg][CH2]C2COC([CH2][Hg][O]C(=O)c3ccc(C)cc3)CO2)cc1 (centres undefined), the T/C [4] is reported as 109 % of control, the T/C [5] is reported as 106 % of control and the T/C [6] is reported as 72 % of control. For the same molecule, the T/C [7] was 102 % of control.
CN=S(=O)(OCCCCCOS(=O)(=NC)c1ccccc1)c1ccccc1 (centres undefined) was tested, and the T/C [14] was 76 % of control.
For NC(CCC(=O)NC(CS)C(=O)NCC(=O)O)C(=O)O (centres undefined), the T/C [8] was 87 % of control, the T/C [9] was 93 % of control and the T/C [10] was 104 % of control. For the same molecule, the T/C [11] was 89 % of control.
In the case of CCCCCC(=O)O[C@]1(C(C)=O)CC[C@H]2[C@@H]3CCC4=CC(=O)CC[C@]4(C)[C@H]3CC[C@@]21C, the T/C [5] is reported as 98 % of control and the T/C [7] is reported as 85 % of control.
CC(C)(C)NC(C1=CC(C)(C)c2ccccc2C1=O)c1ccccc1 (centres undefined) was tested, and the T/C (dose: 150.0 mg/kg/injection, schedule: Q04DX003 (ip), vehicle: Klucel (hydroxypropylcellulose) (HPC)) was 87 % of control and the T/C (dose: 300.0 mg/kg/injection, schedule: Q04DX003 (ip), vehicle: Klucel (hydroxypropylcellulose) (HPC)) was 75 % of control.

From PubChem BioAssay AID296 (DTP/NCI, 2004)
